Structures are written as SMILES. Where only a bound is given, the exact number is not on record here.

Assay [1] concerns the target T1, GPR17 (Homo sapiens, UniProt Q13304). In words: Calcium mobilization functional assay (GPR17 Ca2+ assay). In kind it is cell-based. More on the design: host or cells: Flp-In T-REx CHO. Particulars: CHO hGPR17 cells, inhibition of 50 nM MDL29,951, Calcium 5 dye, FLIPR; read-out: Ca2+ assay pIC50 (converted). The method in brief:
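Flp-In T-REx CHO cells stably expressing human GPR17, doxycycline-induced (1 μg/mL, 16-20 h), loaded 60 min with Calcium 5 dye. Inhibition by varying test-compound concentrations of the 50 nM MDL29,951 agonist response was read by fluorescence over time at room temperature. pIC50 came from 4-parameter logistic fitting.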

In assay [2] the target is T1, GPR17. The assay is described as follows: cAMP accumulation functional assay (HTRF, Schild analysis). In kind it is cell-based. More on the design: host or cells: Flp-In T-REx CHO. Particulars: CHO hGPR17 cells, Schild analysis vs MDL29,951, 5 μM forskolin, read-out: cAMP assay pA2 (converted). On the procedure: Flp-In T-REx CHO cells stably expressing human GPR17 receptor (CHO hGPR17) from Evi Kostenis' lab (Bonn University, Germany) were cultured at 37° C. in a humidified atmosphere of 5% CO2. Cells were grown in DMEM with Nutrient Mixture F-12 supplemented with hygromycin B (500 μg/mL) and blasticidin (30 μg/mL). Expression from the Flp-In locus was induced by treatment with doxycycline (1 μg/mL) for 16-20 h prior assays.
GPR17 activation can also recruit Gi-type G-protein signaling, resulting in a decrease of intracellular cyclic adenosine monophosphate (cAMP). Intracellular cAMP changes can be measured using the HTRF cAMP dynamic assay kit from CisBio (Codolet, France). Using homogenous time-resolved fluorescence technology (HTRF), the assay is based on competition between native cAMP produced by cells and cAMP labelled with the dye d2. The tracer binding was determined by an anti-cAMP antibody labeled with cryptate.
CHO hGPR17 were detached with PBS containing EDTA and dispatched in black 384-well plates with 5,000 cells per well. Cells were first incubated for 30 minutes at room temperature in HBSS Hepes (pH 7.4) containing vehicle or varying concentrations of test GPR17 antagonist/inverse agonist compounds. […] After 60 minutes incubation at room temperature, the reaction is terminated and the cells lysed by adding the d2 detection reagent and the cryptate reagent in 10 μL lysis buffer each according to manufacturer's instructions. After 60 minutes incubation, changes in cAMP concentrations are measured according to manufacturer's instructions using an Envision plate reader with laser excitation. All incubations were performed in duplicate. Data was analyzed using GraphPad Prism software using the 4-parameter logistic equation to measure MDL29,951 pEC50s in absence and presence of GPR17 antagonist/inverse agonist test compounds. Dose ratio (DR) were plotted against antagonist concentrations and Schild analysis provided estimated affinity pA2 of GPR17 antagonist/inverse agonist test compounds.
The activities of the Example compounds tested are depicted in the table below. The activity ranges A, B and C refer to pA2 values in the cAMP assay as follows: “A”: pA2<7.5, “B”: pA2 7.5<x≤8.5, “C”: pA2>8.5.

T1 sequence (Q13304 whole entry): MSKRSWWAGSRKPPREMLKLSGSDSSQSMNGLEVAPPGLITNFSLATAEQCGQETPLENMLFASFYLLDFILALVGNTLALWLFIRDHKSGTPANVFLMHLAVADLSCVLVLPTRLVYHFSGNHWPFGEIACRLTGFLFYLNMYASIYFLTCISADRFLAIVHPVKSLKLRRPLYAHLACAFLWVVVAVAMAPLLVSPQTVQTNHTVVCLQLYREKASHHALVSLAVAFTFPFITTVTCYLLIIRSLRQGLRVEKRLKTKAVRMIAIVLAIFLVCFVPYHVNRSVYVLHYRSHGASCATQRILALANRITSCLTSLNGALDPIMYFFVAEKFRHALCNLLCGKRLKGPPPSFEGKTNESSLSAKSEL

`O=S(=O)(Nc1ccc(I)cc1F)c1c[nH]c2cc(F)ccc12` [Compound I-49, 6-fluoro-N-(2-fluoro-4-iodophenyl)-1H-indole-3-sulfonamide]: at GPR17 [1], the IC50 is above 31.6 nM. Moreover, the Kb at GPR17 [2] is 3.16 to 31.6 nM.

As for `CS(=O)(=O)c1ccc2c(S(=O)(=O)Nc3ccc(Cl)cc3F)c[nH]c2c1` [Compound I-50, N-(4-chloro-2-fluorophenyl)-6-(methylsulfonyl)-1H-indole-3-sulfonamide], the IC50 at GPR17 [1] was 3.16 to 31.6 nM. Moreover, the Kb at GPR17 [2] is 3.16 to 31.6 nM.

As to `O=S(=O)(Nc1cc(F)c(F)cc1F)c1c[nH]c2c1ccc1ccccc12` [Compound I-52, N-(2,4,5-trifluorophenyl)-1H-benzo[g]indole-3-sulfonamide], the IC50 on GPR17 [1] is above 31.6 nM. Besides, the Kb at GPR17 [2] is 3.16 to 31.6 nM.

Regarding `O=S(=O)(Nc1cc(F)cc(F)c1Cl)c1c[nH]c2cc(Cl)ccc12` [Compound I-55, 6-chloro-N-(2-chloro-3,5-difluorophenyl)-1H-indole-3-sulfonamide], the IC50 on GPR17 [1] was 3.16 to 31.6 nM. Moreover, the Kb on GPR17 [2] is 3.16 to 31.6 nM.

In the case of `Cc1ccc(NS(=O)(=O)c2c[nH]c3cc(Cl)ccc23)c(F)c1` [Compound I-56, 6-chloro-N-(2-fluoro-4-methylphenyl)-1H-indole-3-sulfonamide], the IC50 on GPR17 [1] was above 31.6 nM. Also, the Kb at GPR17 [2] is 3.16 to 31.6 nM.

Regarding `Cc1ccnc(NS(=O)(=O)c2c[nH]c3cc(Cl)ccc23)c1` [Compound I-59], the IC50 on GPR17 [1] was above 31.6 nM. For the same molecule, the Kb on GPR17 [2] is above 31.6 nM.

Take `COc1cc(NS(=O)(=O)c2c[nH]c3cc(Cl)ccc23)ncc1Cl` [Compound I-60, 6-chloro-N-(5-chloro-4-methoxypyridin-2-yl)-1H-indole-3-sulfonamide]: the IC50 at GPR17 [1] is above 31.6 nM. Moreover, on GPR17 [2], the Kb was above 31.6 nM.

Turning to `O=S(=O)(Nc1ccc(Cl)cn1)c1c[nH]c2cc(Cl)ccc12` [Compound I-63, 6-chloro-N-(5-chloropyridin-2-yl)-1H-indole-3-sulfonamide], the IC50 at GPR17 [1] was above 31.6 nM. Moreover, on GPR17 [2], the Kb is 3.16 to 31.6 nM.

Consider `O=S(=O)(Nc1ccc(Cl)cc1F)c1c[nH]c2c1ccc1cccnc12` [Compound I-65, N-(4-chloro-2-fluorophenyl)-1H-pyrrolo[3,2-h]quinoline-3-sulfonamide], for which the IC50 at GPR17 [1] was 3.16 to 31.6 nM. The Kb at GPR17 [2] is 3.16 to 31.6 nM.

Take `O=S(=O)(Nc1cccc2c1OC(F)(F)O2)c1c[nH]c2c1ccc1cccnc12` [Compound I-66, N-(2,2-difluoro-1,3-benzodioxol-4-yl)-1H-pyrrolo[3,2-h]quinoline-3-sulfonamide]: the IC50 on GPR17 [1] is 3.16 to 31.6 nM. Further, the Kb at GPR17 [2] is 3.16 to 31.6 nM.

On to `O=S(=O)(Nc1cc(F)c(F)cc1F)c1c[nH]c2c1ccc1cccnc12` [Compound I-67, N-(2,4,5-trifluorophenyl)-1H-pyrrolo[3,2-h]quinoline-3-sulfonamide], for which, at GPR17 [1], the IC50 was 3.16 to 31.6 nM. In addition, the Kb at GPR17 [2] is 3.16 to 31.6 nM.

Regarding `COc1ccc2c(S(=O)(=O)Nc3ccc(Cl)cc3F)c[nH]c2c1` [Compound I-69, N-(4-chloro-2-fluorophenyl)-6-methoxy-1H-indole-3-sulfonamide], the IC50 on GPR17 [1] is above 31.6 nM. For the same molecule, the Kb at GPR17 [2] is above 31.6 nM.

`O=S(=O)(Nc1cccc2nsnc12)c1c[nH]c2c1ccc1cccnc12` [Compound I-73, N-(2,1,3-benzothiadiazol-4-yl)-1H-pyrrolo[3,2-h]quinoline-3-sulfonamide]: the IC50 at GPR17 [1] was 3.16 to 31.6 nM. Also, the Kb at GPR17 [2] is below 3.16 nM.

As for `N#Cc1ccc2c(S(=O)(=O)Nc3ccc(Cl)cc3F)c[nH]c2c1` [Compound I-76, N-(4-chloro-2-fluorophenyl)-6-cyano-1H-indole-3-sulfonamide], at GPR17 [1], the IC50 was above 31.6 nM. Moreover, on GPR17 [2], the Kb was above 31.6 nM.

As to `O=S(=O)(Nc1cccc2nsnc12)c1c[nH]c2nc(Br)ccc12` [Compound I-78, N-(2,1,3-benzothiadiazol-4-yl)-6-bromo-1H-pyrrolo[2,3-b]pyridine-3-sulfonamide], the IC50 on GPR17 [1] was below 3.16 nM. In addition, at GPR17 [2], the Kb is 3.16 to 31.6 nM.

In the case of `N#Cc1ccc(NS(=O)(=O)c2c[nH]c3ncc(I)cc23)cc1` [Compound I-79, N-(4-cyanophenyl)-5-iodo-1H-pyrrolo[2,3-b]pyridine-3-sulfonamide], on GPR17 [1], the IC50 was 3.16 to 31.6 nM. For the same molecule, the Kb on GPR17 [2] was above 31.6 nM.

As to `N#Cc1ccc(NS(=O)(=O)c2c[nH]c3nc(Br)ccc23)cc1` [Compound I-80, 6-bromo-N-(4-cyanophenyl)-1H-pyrrolo[2,3-b]pyridine-3-sulfonamide], the IC50 on GPR17 [1] was below 3.16 nM. Besides, the Kb at GPR17 [2] is 3.16 to 31.6 nM.

In the case of `O=S(=O)(Nc1cccc(F)c1Cl)c1c[nH]c2nc(Br)ccc12` [Compound I-83, 6-bromo-N-(2-chloro-3-fluoorphenyl)-1H-pyrrolo[2,3-b]pyridine-3-sulfonamide], on GPR17 [1], the IC50 was 3.16 to 31.6 nM. Further, the Kb at GPR17 [2] is 3.16 to 31.6 nM.

`C#Cc1ccc(NS(=O)(=O)c2c[nH]c3nc(Br)ccc23)cc1` [Compound I-85, 6-bromo-N-(4-ethynylphenyl)-1H-pyrrolo[2,3-b]pyridine-3-sulfonamide]: at GPR17 [1], the IC50 is 3.16 to 31.6 nM. In addition, on GPR17 [2], the Kb is 3.16 to 31.6 nM.

`O=S(=O)(Nc1cc(F)ccc1F)c1c[nH]c2nc(Br)ccc12` [Compound I-88, 6-bromo-N-(2,5-difluorophenyl)-1H-pyrrolo[2,3-b]pyridine-3-sulfonamide]: the IC50 at GPR17 [1] is 3.16 to 31.6 nM. Besides, on GPR17 [2], the Kb was 3.16 to 31.6 nM.

Take `O=S(=O)(Nc1cc(F)ccc1F)c1c[nH]c2nc(Cl)ccc12` [Compound I-90, 6-chloro-N-(2,5-difluorophenyl)-1H-pyrrolo[2,3-b]pyridine-3-sulfonamide]: the IC50 at GPR17 [1] was above 31.6 nM. In addition, the Kb on GPR17 [2] is above 31.6 nM.

As to `O=S(=O)(Nc1ccc(F)cc1F)c1c[nH]c2nc(Br)ccc12` [Compound I-91, 6-bromo-N-(2,4-difluorophenyl)-1H-pyrrolo[2,3-b]pyridine-3-sulfonamide], the IC50 on GPR17 [1] was above 31.6 nM. Moreover, on GPR17 [2], the Kb was above 31.6 nM.

With `O=C1OCc2ccc(NS(=O)(=O)c3c[nH]c4nc(Br)ccc34)cc21` [Compound I-92, 6-bromo-N-(3-oxo-1,3-dihydro-2-benzofuran-5-yl)-1H-pyrrolo[2,3-b]pyridine-3-sulfonamide], the IC50 at GPR17 [1] was above 31.6 nM. In addition, the Kb at GPR17 [2] was above 31.6 nM.

With `O=S(=O)(Nc1cccc2nsnc12)c1c[nH]c2nc(Cl)ccc12` [Compound I-93, N-(2,1,3-benzothiadiazol-4-yl)-6-chloro-1H-pyrrolo[2,3-b]pyridine-3-sulfonamide], the IC50 at GPR17 [1] is 3.16 to 31.6 nM. Moreover, at GPR17 [2], the Kb is 3.16 to 31.6 nM.

For the molecule `O=S(=O)(Nc1ccc(I)cc1F)c1c[nH]c2nc(Cl)ccc12` [Compound I-94, 6-chloro-N-(2-fluoro-4-iodophenyl)-1H-pyrrolo[2,3-b]pyridine-3-sulfonamide], the IC50 at GPR17 [1] is 3.16 to 31.6 nM. Further, on GPR17 [2], the Kb is 3.16 to 31.6 nM.

For the molecule `O=S(=O)(Nc1cc(F)c(F)cc1F)c1c[nH]c2nc(Br)ccc12` [Compound I-95, 6-bromo-N-(2,4,5-trifluorophenyl)-1H-pyrrolo[2,3-b]pyridine-3-sulfonamide], the IC50 at GPR17 [1] was 3.16 to 31.6 nM. At GPR17 [2], the Kb was 3.16 to 31.6 nM.

As to `O=S(=O)(Nc1cccc2c1OCO2)c1c[nH]c2nc(Cl)ccc12` [Compound I-96, N-(1,3-benzodioxol-4-yl)-6-chloro-1H-pyrrolo[2,3-b]pyridine-3-sulfonamide], at GPR17 [1], the IC50 is 3.16 to 31.6 nM. Further, the Kb at GPR17 [2] is above 31.6 nM.

Consider `O=S(=O)(Nc1cccc2c1OCO2)c1c[nH]c2nc(Br)ccc12` [Compound I-97, N-(1,3-benzodioxol-4-yl)-6-bromo-1H-pyrrolo[2,3-b]pyridine-3-sulfonamide], for which the IC50 at GPR17 [1] was 3.16 to 31.6 nM. Also, the Kb at GPR17 [2] is 3.16 to 31.6 nM.

As for `O=S(=O)(Nc1cccc2nsnc12)c1c[nH]c2ncc(I)cc12` [Compound I-98, N-(2,1,3-benzothiadiazol-4-yl)-5-iodo-1H-pyrrolo[2,3-b]pyridine-3-sulfonamide], the IC50 on GPR17 [1] is 3.16 to 31.6 nM. The Kb on GPR17 [2] was 3.16 to 31.6 nM.

As to `O=S(=O)(Nc1cccc2c1OC(F)(F)O2)c1c[nH]c2nc(Cl)ccc12` [Compound I-100, 6-chloro-N-(2,2-difluoro-1,3-benzodioxol-4-yl)-1H-pyrrolo[2,3-b]pyridine-3-sulfonamide], the IC50 at GPR17 [1] was above 31.6 nM. Moreover, the Kb on GPR17 [2] was 3.16 to 31.6 nM.

The record behind these values is patent US12071404B2, “Aza (indole)-, benzothiophene-, and benzofuran-3-sulfonamides” (UCB Pharma GmbH, priority 2016, dated 2024).
